Data set [1] addresses T1, purified rat deoxyhypusyl hydroxylase (Rattus norvegicus, UniProt Q5PPJ4).
T1 construct: probably testis; substrate unhydroxylated eIF-5A precursor
T1 sequence (Q5PPJ4 1-302): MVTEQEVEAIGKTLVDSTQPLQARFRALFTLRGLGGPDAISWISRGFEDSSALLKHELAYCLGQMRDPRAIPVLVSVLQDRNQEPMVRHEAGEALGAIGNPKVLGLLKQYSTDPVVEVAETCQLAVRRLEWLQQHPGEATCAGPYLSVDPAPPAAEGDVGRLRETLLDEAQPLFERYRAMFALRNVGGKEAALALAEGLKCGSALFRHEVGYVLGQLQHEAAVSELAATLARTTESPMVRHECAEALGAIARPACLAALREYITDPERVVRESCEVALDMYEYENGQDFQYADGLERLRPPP
The experiment in a line: DOHH assay, purified rat deoxyhypusyl hydroxylase, conversion of deoxyhypusine-containing eIF-5A precursor. The data set is classed as biochemical. Particulars: unhydroxylated eIF-5A precursor, purified rat enzyme. On the procedure: The inhibiting effect of a model peptidomimetic, suitable to serve as carrier for hydroxypyridone warheads, on the activity of the purified eIF-5A-hydroxylating enzyme was studied in a cell-free system.
Enzyme activity was purified and determined as described by Abbruzzese et al., J. Biol. Chem. 261:3085-9 (1986), which is hereby incorporated by reference. Briefly, the enzyme is offered labeled deoxyhypusine-containingeIF-5A precursor. Following standard incubation conditions, the conversion into hypusine residues is measured by chromatographic amino acid separation after protein hydrolysis.

Another data set has as its system prolyl hydroxylase. The settings on record: U.S. Pat. No. 4,937,266; cited from earlier work.
Data set [2] deals with human umbilical vein endothelial cells (HUVEC). The experiment in a line: Endothelial cell proliferation (tritiated thymidine incorporation). Particulars: 24 hours. The data set is classed as cell-based. On the procedure:
Human umbilical vein endothelial cells ("HUVEC") were treated with the specified concentrations of deferiprone (X-axis) for 24 hours prior to evaluating tritiated thymidine (3H-Tdr) incorporation into DNA for 4 hours. The results are expressed per well and the bars at each point reflect the standard error of the mean (S.E.M., n=3). Decreasing 3H-Tdr incorporation would reflect reduced endothelial cells proliferation.
Endothelial cell proliferation was determined by essentially the same methods previously disclosed for the determination of smooth muscle proliferation. Human umbilical vein endothelial cells ("HUVEC") were isolated and subcultured in Medium 199 containing 15% fetal bovine serum ("FBS"), endothelial cell growth factor ("ECGF", 5 ng/ml), heparin (9 μg/ml), and antibiotics. The cells were plated in 96-well dishes at 1×10^4 cells per well and then allowed to attach for 24 hours. The medium was removed, and the cells were changed to media containing deferiprone at 50, 100, 200, or 500 μM. After 24 hours, tritiated thymidine was added to the wells and allowed to incorporate into the DNA for 4 hours prior to isolation of the nuclear DNA by standard methods. The results are expressed as the counts per minute ("cpm") of radioactivity per well, which is proportional to the rate of DNA synthesis during the 4 hour labelling period.

The next data set deals with protein hydroxylases. The data set can be described thus: Inhibition of protein hydroxylases. The data set is classed as biochemical. Particulars: no data shown.
Data set [3] concerns the target T2, cellular human deoxyhypusyl hydroxylase (Homo sapiens, UniProt Q9BU89).
T2 construct: endogenous in cells; host or cells: cultured human cells (smooth muscle cells, B-lymphocytes)
T2 sequence (Q9BU89 1-302): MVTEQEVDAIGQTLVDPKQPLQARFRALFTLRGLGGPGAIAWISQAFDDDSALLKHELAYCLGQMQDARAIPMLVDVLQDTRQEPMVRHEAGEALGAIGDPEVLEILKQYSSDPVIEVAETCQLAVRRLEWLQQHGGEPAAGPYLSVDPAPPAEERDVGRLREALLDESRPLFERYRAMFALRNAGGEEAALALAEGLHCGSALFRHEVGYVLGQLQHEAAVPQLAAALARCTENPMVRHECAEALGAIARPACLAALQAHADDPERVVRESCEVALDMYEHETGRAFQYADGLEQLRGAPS
The experiment in a line: Cellular human deoxyhypusyl hydroxylase (DOHH assay, 3H-spermidine labeling). The data set is classed as cell-based. The settings on record: for Deoxyhypusyl hydroxylase ID50 (cellular): cellular human enzyme, inhibitory dose that gives 50% reduction of the enzyme-mediated reaction, unit assumed. From the text:
(§1) The inhibitory action of the substances according to the invention, for example on collagen secretion or cell proliferation, can be tested in direct assays of the enzymes mediating the pivotal protein hydroxylations for these biological processes, such as prolyl 4-hydroxylase and deoxyhypusyl hydroxylase. This entails the enzymatic hydroxylation of the appropriate protein precursor, either by the cellular or the purified enzyme, in the presence or absence of compounds of Formulae (I) or (II), with concomitant determination of co-substrate utilization by these enzymes or subsequent isolation of the hydroxylated amino acid and its unhydroxylated precursor. In this manner, the inhibitory potency of any given compound can be measured in the cell-free system, in cell culture, or in tissue, and is expressed as the inhibitory dose that gives a 50% reduction of the enzyme-mediated reaction (ID50). Enzyme is tested in analogy to the method of A. Abbruzzese, H. M. Hanauske-Abel, et al., Biochem. Biophys. Acta, 1077, 159-166 (1991) and of K. Majamaa, H. M. Hanauske-Abel, et al., Eur. J. Biochem. 138, 239-245 (1984), which are hereby incorporated by reference. Table III lists the ID50 values of some of the compounds according to the invention, using purified human prolyl 4-hydroxylase and cellular human deoxyhypusyl hydroxylase as representative protein hydroxylases.
The inhibiting effect of hydroxypyridones on the eIF-5A-hydroxylating enzyme was studied in cultured human cells (i.e. smooth muscle cells, B-lymphocytes).
The cellular conversion of the precursor deoxyhypusine to the hydroxylated hypusine in cells was examined, after preincubation with the inhibitor for 60 minutes, by labeling the human cells with ^3 H-spermidine (5 μCi/ml) in 25 cm^2 flasks (1×10^6 cells/flask) for 24 hours prior to cell lysis, precipitation with 10% TCA containing 1 mM each of putrescine, spermidine, and spermine, and hydrolysis in 6 N HCl at 110° C. for 16 hours. The hydrolysate was analyzed for labeled amino acids on an amino acid analyzer by published methods (Park et al., J. Biol. Chem., 257:7217-7222 (1982), which is hereby incorporated by reference). The retention of purified hypusine and deoxyhypusine was determined from standards.

Data set [4] deals with T3, purified human prolyl 4-hydroxylase (Homo sapiens, UniProt P13674).
T3 construct: made in house; host or cells: Spodoptera frugiperda insect cells (baculovirus, co-expression of α- and β-subunits)
The data set can be described thus: Assay of purified human prolyl 4-hydroxylase (14CO2 release from 2-oxoglutarate, cell-free). The data set is classed as biochemical. Particulars: for Prolyl 4-hydroxylase ID50 (purified): purified human enzyme, inhibitory dose that gives 50% reduction of the enzyme-mediated reaction, unit assumed. On the procedure: The effect on the enzyme was determined in a cell-free system by measuring the oxidative decarboxylation of its cofactor 2-oxoglutarate via release of radiolabeled carbon dioxide in a standard reaction mixture also containing ascorbate, ferrous sulfate, and unhydroxylated peptide substrate.
as §1
The inhibiting effect of hydroxypyridones on the collagen-hydroxylating enzyme was studied in a cell-free system.
Assay of purified human prolyl 4-hydroxylase
The native α2 β2 -tetrameric enzyme was purified to homogeneity by poly(L-proline) affinity chromatography and DEAE chromatography from the supernatant of Spodoptera frugiperda insect cells cotransfected with recombinant baculovirus transfer vectors for both the human α- and β-subunits. Enzyme activity was determined by trapping of ^14 CO2 released from 2-oxo[1-^14 C][glutarate] according to the procedure of Majamaa, et al., Eur. J. Biochem., 138:239-245 (1984), which is hereby incorporated by reference. Briefly, all incubations were run for 60 minutes at 37° C. in a final volume of 1.0 ml per test sample, containing 0.1 μg enzyme, 0.1 mg heat-denatured (Pro-Pro-Gly)10 ×9 H2 O as hydroxylatable substrate, 0.1 mM 2-oxo[1-^14 C][glutarate] adjusted to 60,000 dpm by mixing with the unlabeled 2-oxoglutarate as cosubstrate, and cofactors (1.6 mM ascorbate, 0.05 mM ferrous sulfate, 0.08 mM dithiothreitol, 2 mg bovine serum albumin, 5 μL catalase). Assays are performed with only one of the active compounds at any given time.

The test system of the next data set is certain human cells. Particulars: Ekblom et al.; cited from earlier work.
The conditions of data set [5]: orally active; established characteristics; cited from earlier work.
Data set [6] relates to human SMC from fibroproliferative vascular lesions. The experiment in a line: Cell proliferation: DNA synthesis (3H-thymidine) in SMC. Type of data set: cell-based. On the procedure: The effect of the structural hydroxypyridone analog kojic acid is shown for comparison. Serum-stimulated DNA synthesis in SMC was determined by a 4-hour pulse of ^3 H-thymidine given 20 hours after treatment with L-mimosine and kojic acid (filled symbols). Identically treated, but unlabeled cells cultured in parallel, at that time point were washed and returned to fresh culture media without inhibitor for an additional 20 hours prior to otherwise identical labeling with ^3 H-thymidine (open symbols). Data is expressed as ^3 H-thymidine incorporated per cell to compensate for the reduced cell number in the wake of inhibitor treatment.
Inhibition of DNA synthesis was examined by semiautomated methods. SMC were plated at 1×10^4 cells/well in 96-well microtiter plates at least 24 hours prior to the assay. Agents were introduced into normal serum-containing growth media for 20 hours before the cells were pulsed with ^3 H-thymidine (1 μCi/ml) for 4 hours. Cells were collected with a cell harvester and the DNA-incorporated label determined by scintillation counting (Betaplate; Wallac, Inc., Gaithersburg, Md.) (n=6 per point).

Another data set deals with HUVEC. The data set can be described thus: Endothelial cell tube formation on Matrigel. Type of data set: cell-based, human. Particulars: 24 hours. On the procedure:
HUVEC form tubes when plated on Matrigel and this is a commonly used as an in vitro model of capillary formation. In the FIG. 10A, it is shown that untreated HUVEC form capillary-like tubes (ARROW) when placed on Matrigel for 24 hours.
Endothelial cell tube formation was determined by plating HUVEC on a thick Matrigel (Becton Dickinson Labware) gel at a density of 5×10^4 cells per well of 24 well dish. Deferiprone was incubated with the cells for 30 minutes in solution prior to applying the cells to the Matrigel. The cells were added to the Matrigel-coated well, and, then 4 hours and 24 hours later, the cells were observed and photographed at a reproducible location.

The structures appear in SMILES notation. “Also recorded” adds a separate entry of the source.

T3 sequence (P13674 18-534): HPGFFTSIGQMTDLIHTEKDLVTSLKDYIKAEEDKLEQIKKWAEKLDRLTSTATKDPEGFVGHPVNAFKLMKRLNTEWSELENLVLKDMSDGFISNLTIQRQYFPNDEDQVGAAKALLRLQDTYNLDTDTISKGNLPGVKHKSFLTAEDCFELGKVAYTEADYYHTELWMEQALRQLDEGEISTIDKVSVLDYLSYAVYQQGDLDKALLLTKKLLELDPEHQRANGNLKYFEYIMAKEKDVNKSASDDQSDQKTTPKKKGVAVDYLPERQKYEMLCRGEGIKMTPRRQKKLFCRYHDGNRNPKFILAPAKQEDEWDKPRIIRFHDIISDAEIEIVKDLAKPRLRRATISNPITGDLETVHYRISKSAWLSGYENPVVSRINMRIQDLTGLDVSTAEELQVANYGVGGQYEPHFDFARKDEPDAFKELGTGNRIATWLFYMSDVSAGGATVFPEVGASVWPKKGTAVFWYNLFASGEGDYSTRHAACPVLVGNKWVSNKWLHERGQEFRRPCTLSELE
T3 sequence (P07237 18-508 partner): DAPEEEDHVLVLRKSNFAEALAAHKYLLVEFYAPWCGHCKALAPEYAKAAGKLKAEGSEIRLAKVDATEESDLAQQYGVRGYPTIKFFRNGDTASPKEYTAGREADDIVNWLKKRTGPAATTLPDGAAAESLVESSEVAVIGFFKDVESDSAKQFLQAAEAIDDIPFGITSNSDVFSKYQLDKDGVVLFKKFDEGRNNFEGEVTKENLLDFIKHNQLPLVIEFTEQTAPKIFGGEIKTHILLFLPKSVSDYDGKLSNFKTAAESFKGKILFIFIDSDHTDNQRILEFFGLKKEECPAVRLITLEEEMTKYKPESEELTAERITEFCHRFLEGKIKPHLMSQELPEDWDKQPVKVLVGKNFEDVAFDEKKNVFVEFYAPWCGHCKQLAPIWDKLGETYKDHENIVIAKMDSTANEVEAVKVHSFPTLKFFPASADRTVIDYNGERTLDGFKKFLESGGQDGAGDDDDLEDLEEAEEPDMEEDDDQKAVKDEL

As for `NC(CO)C1CCC(=O)NC(CO)C(=O)N(C(Cc2ccccc2)C(=O)O)NC1=O` (stereo not drawn) [Mimetic A], the figures for the “deoxyhypusine-to-hypusine conversion / inhibition of purified deoxyhypusyl hydroxylase” value in data set [1] and in [1] (listed as mimetic A) were “only weakly inhibitory” and “suppressed”, respectively.

For `CC(C)(CO)[C@@H](O)C(=O)NCCC(=O)NCCSSCCNC(=O)CCNC(=O)[C@H](O)C(C)(C)CO` [pantethine], in the data set with prolyl hydroxylase, the “effect on increased prolyl hydroxylase activity in liver with hepatic fibrosis” value is reported as “inhibited an increased prolyl hydroxylase activity”.

Turning to `O=c1cc(CO)occ1O` [kojic acid, reference compound], the “inhibition of endothelial cell proliferation” value in data set [2] (FIG. 9) is recorded as “does not inhibit EC proliferation”. Also, in the data set on protein hydroxylases, the “inhibition of protein hydroxylases” value is listed as “does not inhibit protein hydroxylases”.

For the compound `CCc1c(O)c(=O)ccn1CC` [HK-2], the Deoxyhypusyl hydroxylase ID50 (cellular) in data set [3] was found to be 50 µM. Besides, the Prolyl 4-hydroxylase ID50 (purified) in [4] turned out to be 145 µM.

In turn, `CCCn1ccc(=O)c(O)c1C` [HK-27] gave a Deoxyhypusyl hydroxylase ID50 (cellular) in data set [3] of 50 µM. Besides, the Prolyl 4-hydroxylase ID50 (purified) in data set [4] was found to be 155 µM.

In turn, `CCn1ccc(=O)c(O)c1C` [HK-26] gave a Deoxyhypusyl hydroxylase ID50 (cellular) in data set [3] of 58 µM. The Prolyl 4-hydroxylase ID50 (purified) in [4] was determined as 130 µM.

On to `Cc1ncc(CO)c(C=NNC(=O)c2ccncc2)c1O` [pyridoxal isonicotinyl hydrazone], for which the “effect on proliferation of certain human cells” value in the data set on certain human cells is on record as “stimulates the proliferation”.

Regarding `CCOCn1ccc(=O)c(O)c1C` [HK-15], the Deoxyhypusyl hydroxylase ID50 (cellular) in data set [3] stood at 60 µM. Also, in data set [4], the Prolyl 4-hydroxylase ID50 (purified) was 210 µM.

Regarding `Cc1c(O)c(=O)ccn1C` [HK-1, 1,2-dimethyl-3-hydroxypyrid-4-one], in data set [2] (FIG. 9, listed as deferiprone), the “inhibition of endothelial cell proliferation” value is “blocks the proliferation; also recorded: inhibit endothelial cell proliferation”. Besides, the “inhibition of deoxyhypusyl hydroxylase” value in [3] (FIG. 3, assayed in vitro) is given as “directly inhibit”. In addition, the Deoxyhypusyl hydroxylase ID50 (cellular) in [3] was determined as 90 µM. The “extraction by the liver from the portal blood” value in data set [5] was “rapidly extracted by the liver from the portal blood”. The “non-specific or toxic effects” value in data set [6] (FIGS. 6, 7) is listed as “did not result from non-specific or toxic effects”. Further, the “reversibility of suppressive effects (collagen secretion, onset of DNA synthesis)” value in data set [6] (upon removal of compound) is “reversible”. Besides, the “appearance / viability of treated HUVEC on Matrigel” value with HUVEC (FIG. 10B) was “remain healthy and viable in appearance”. Further, the “formation of capillary-like tubes on Matrigel” value in the data set with HUVEC (HUVEC, FIG. 10, listed as deferiprone) was “blocks the formation of tubular structures; also recorded: block the formation of capillary-like structures; also recorded: blocks capillary formation; also recorded: attach and spread, but do not form capillary-like tubes”. Further, the “inhibition of purified human prolyl 4-hydroxylase” value in data set [4] (cell-free system, FIG. 1) is “directly inhibit”. In addition, the Prolyl 4-hydroxylase ID50 (purified) in data set [4] came to 133 µM.

In data set [4], `CCOC(=O)[C@@H](N)Cn1ccc(=O)c(O)c1` [--ethyl ester] showed a Prolyl 4-hydroxylase ID50 (purified) of 145 µM.

Turning to `C=CCn1ccc(=O)c(O)c1C` [HK-16], in data set [3], the Deoxyhypusyl hydroxylase ID50 (cellular) was found to be 50 µM. The Prolyl 4-hydroxylase ID50 (purified) in data set [4] is 150 µM.

The record behind these values is US6046219A, “Method for the treatment of conditions mediated by collagen formation together with cell proliferation by application of inhibitors of protein hydroxylation” (Cornell Research Foundation, Inc., priority 1997, dated 2000).
